Measured values taken from ChEMBL document CHEMBL1144305, “Benzimidazole derivatives as novel nonpeptide luteinizing hormone-releasing hormone (LHRH) antagonists. Part 2: Benzimidazole-5-sulfonamides” (Bioorg Med Chem Lett, 2005).

What was measured:
[1] = molecular target: T1, Gonadotropin-releasing hormone receptor (Homo sapiens, UniProt P30968); assay: Inhibitory concentration towards human leutinizing releasing hormone receptor
T1 sequence (P30968 whole entry): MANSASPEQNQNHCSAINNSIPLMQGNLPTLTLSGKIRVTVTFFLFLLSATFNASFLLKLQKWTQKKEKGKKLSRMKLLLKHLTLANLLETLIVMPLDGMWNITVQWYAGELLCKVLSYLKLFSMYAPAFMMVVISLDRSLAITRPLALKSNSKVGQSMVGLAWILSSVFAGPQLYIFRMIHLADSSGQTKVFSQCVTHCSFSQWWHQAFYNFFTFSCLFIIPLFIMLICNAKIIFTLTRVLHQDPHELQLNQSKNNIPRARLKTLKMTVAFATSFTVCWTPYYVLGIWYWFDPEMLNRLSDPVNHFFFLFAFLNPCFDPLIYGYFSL

[2] = molecular target: T2, Gonadotropin-releasing hormone receptor (Rattus norvegicus, UniProt P30969); assay: Inhibitory concentration towards rat leutinizing releasing hormone receptor
T2 sequence (P30969 whole entry): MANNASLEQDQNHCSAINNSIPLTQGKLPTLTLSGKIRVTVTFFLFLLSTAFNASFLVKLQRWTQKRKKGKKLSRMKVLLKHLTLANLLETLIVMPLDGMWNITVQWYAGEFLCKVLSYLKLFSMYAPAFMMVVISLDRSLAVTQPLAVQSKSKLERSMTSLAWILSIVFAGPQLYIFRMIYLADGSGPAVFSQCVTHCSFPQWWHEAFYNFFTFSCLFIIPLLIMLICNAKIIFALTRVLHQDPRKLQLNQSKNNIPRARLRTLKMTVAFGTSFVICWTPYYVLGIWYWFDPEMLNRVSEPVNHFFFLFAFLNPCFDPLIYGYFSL

SMILES	IC50 [1]	IC50 [2]
CCCc1nc2cc(S(=O)(=O)NCc3ccc(F)cc3)ccc2n1Cc1ccccc1	> 10000 nM	> 10000 nM
CC(C)(C)NC(=O)NCCc1nc2cc(S(=O)(=O)NCc3ccc(F)c(F)c3)ccc2n1Cc1ccccc1	170 nM	110 nM
CC(C)(C)NC(=O)NCCc1nc2cc(S(=O)(=O)NCc3ccc(C(F)(F)F)c(F)c3)ccc2n1Cc1ccccc1	57 nM	51 nM
CC(C)c1nc2cc(S(=O)(=O)NCc3ccc(F)cc3)ccc2n1Cc1ccccc1	390 nM	690 nM
CC(C)(C)NC(=O)NCCc1nc2cc(S(=O)(=O)NCc3ccccc3F)ccc2n1Cc1ccccc1	750 nM	450 nM
COc1ccc(CNS(=O)(=O)c2ccc3c(c2)nc(CCNC(=O)NC(C)(C)C)n3Cc2ccccc2)cc1	340 nM	200 nM
CC(C)(C)OC(=O)NCCc1nc2cc(S(=O)(=O)NCc3ccc(F)cc3)ccc2n1Cc1ccccc1	740 nM	540 nM
CC(C)(C)NC(=O)NCCc1nc2cc(S(=O)(=O)NCc3ccc(Cl)cc3Cl)ccc2n1Cc1ccccc1	22 nM	14 nM
CC(C)NC(=O)NCCc1nc2cc(S(=O)(=O)NCc3ccc(F)cc3)ccc2n1Cc1ccccc1	150 nM	79 nM
CC(C)(C)NC(=O)NCCc1nc2cc(S(=O)(=O)NCc3ccc(Cl)cc3)ccc2n1Cc1ccccc1	4.2 nM	3.9 nM
CC(C)(C)CNC(=O)NCCc1nc2cc(S(=O)(=O)NCc3ccc(F)cc3)ccc2n1Cc1ccccc1	110 nM	30 nM
CC(C)(C)NC(=O)CCCc1nc2cc(S(=O)(=O)NCc3ccc(F)cc3)ccc2n1Cc1ccccc1	400 nM	230 nM
NCCc1nc2cc(S(=O)(=O)NCc3ccc(F)cc3)ccc2n1Cc1ccccc1	> 10000 nM	> 10000 nM
O=C(NCCc1nc2cc(S(=O)(=O)NCc3ccc(F)cc3)ccc2n1Cc1ccccc1)Nc1ccccc1Cl	83 nM	50 nM
CCNC(=O)NCCc1nc2cc(S(=O)(=O)NCc3ccc(F)cc3)ccc2n1Cc1ccccc1	690 nM	380 nM
O=S(=O)(NCc1ccc(F)cc1)c1ccc2c(c1)nc(C1CC1)n2Cc1ccccc1	1900 nM	1600 nM
CC(C)(C)NC(=O)NCCc1nc2cc(S(=O)(=O)NCc3ccc(F)cc3)ccc2n1Cc1ccccc1	20 nM	12 nM
CC(C)(C)NC(=O)NCCCc1nc2cc(S(=O)(=O)NCc3ccc(F)cc3)ccc2n1Cc1ccccc1	180 nM	83 nM
CC(C)(C)CC(=O)NCCc1nc2cc(S(=O)(=O)NCc3ccc(F)cc3)ccc2n1Cc1ccccc1	2600 nM	840 nM
O=C(NCCc1nc2cc(S(=O)(=O)NCc3ccc(F)cc3)ccc2n1Cc1ccccc1)Nc1ccccc1F	66 nM	53 nM
CC(C)(C)NC(=O)NCCc1nc2cc(S(=O)(=O)NCc3ccccc3)ccc2n1Cc1ccccc1	490 nM	310 nM
